According to US11925624B2, “Methods of administering anti-fibrotic therapy” (GENENTECH, INC., priority 2016, dated 2024):

Experiment: Serum creatinine (Scr) change from baseline, SAD study (Part A)
Format: in vivo, human
Settings: for Number of subjects with change in Scr <0.3 mg/dL from baseline / Number of subjects with change in Scr ≥0.3 mg/dL from baseline / Number of subjects with percent change in Scr <30% from baseline / Number of subjects with percent change in Scr ≥30% from baseline: SAD
Experimental: In addition to the measurement of various PK parameters in both parts of the study, the changes in the subjects' serum creatinine levels were also evaluated in this study. Tables 6A and 6B summarize the change in level and percent change in serum creatinine from averaged screening and pre-dosing values for the subjects in SAD study in each treatment group, as applicable. Tables 7A and 7B summarize the change in level and percent change in scrum creatinine from averaged screening and pre-dosing values for the subjects in MAD study. […] In Part B of the study, 2 subjects (275 mg BID) experienced clinically significant TEAEs of increased creatinine on day 5. The mean change in serum creatinine from a combined screening and pre-dose baseline in the MAD part of the study is illustrated in FIG. 1. In addition, the mean change in creatinine level from combined screening and pre-dose level in the MAD part of the study is illustrated in FIG. 2.

## Cn1cc(-c2cn(-c3ccc(OC(F)(F)F)cc3)c(=O)c3ncn(C)c23)cn1 [Compound I]
Part A (SAD), exposures of doses of 200 mg or more
  Exposures with increases over the upper limit of normal (ULN) in serum creatinine: about 21%
25 mg
  Number of subjects with change in Scr <0.3 mg/dL from baseline: 6
  Number of subjects with change in Scr ≥0.3 mg/dL from baseline: 0
  Number of subjects with percent change in Scr <30% from baseline: 6
  Number of subjects with percent change in Scr ≥30% from baseline: 0
75 mg
  Number of subjects with change in Scr <0.3 mg/dL from baseline: 6
  Number of subjects with change in Scr ≥0.3 mg/dL from baseline: 0
  Number of subjects with percent change in Scr <30% from baseline: 6
  Number of subjects with percent change in Scr ≥30% from baseline: 0
200 mg
  Number of subjects with change in Scr <0.3 mg/dL from baseline: 6
  Number of subjects with change in Scr ≥0.3 mg/dL from baseline: 0
  Number of subjects with percent change in Scr <30% from baseline: 6
  Number of subjects with percent change in Scr ≥30% from baseline: 0
400 mg Fasted
  Number of subjects with change in Scr <0.3 mg/dL from baseline: 10
  Number of subjects with change in Scr ≥0.3 mg/dL from baseline: 2
  Number of subjects with percent change in Scr <30% from baseline: 9
  Number of subjects with percent change in Scr ≥30% from baseline: 3
800 mg Fasted
  Number of subjects with change in Scr <0.3 mg/dL from baseline: 5
  Number of subjects with change in Scr ≥0.3 mg/dL from baseline: 1
  Number of subjects with percent change in Scr <30% from baseline: 4
  Number of subjects with percent change in Scr ≥30% from baseline: 2
1600 mg
  Number of subjects with change in Scr <0.3 mg/dL from baseline: 6
  Number of subjects with change in Scr ≥0.3 mg/dL from baseline: 0
  Number of subjects with percent change in Scr <30% from baseline: 6
  Number of subjects with percent change in Scr ≥30% from baseline: 0
